Measurements from US9393317B2, “Peptide-conjugated oligonucleotide therapeutic and method of making and using same” (Sloan-Kettering Institute for Cancer Research, priority 2008, dated 2016).
{C6NH2} = C6-amino linker; d = 2'-deoxy (DNA); m = 2'-O-methyl

Columns and labels:
[1] = tested on: endothelial cells (HUVECs and the murine endothelioma cell line EOMA); experiment: Uptake of fluorescence labeled Id1-PCAO by endothelial cells, confocal fluorescence microscopy; format: cell-based; details: 200 nM, no lipid or other carrier
Protocol: In order to determine if the Id1 PCAO retained the homing specificity of the F3 peptide and could be taken up by cells in the absence of lipid or other specialized carrier, fluorescence labeled Id1-PCAOs were supplied to different cell lines at a concentration of 200 nM. […] Fluorescein and tetra methyl-rhodamine red labeled PCAOs were also tested to control for the effects of the fluorophore and similar results were obtained. To rule out effects from the fixation process we performed epifluorescence live imaging on viable HUVECs and HeLa cells and similar results were observed.
HUVEC were seeded 24 h prior to transfection at 10^5 cells/well in six-well MWDs in standard growth media (EGM-2) without antibiotics. At the day of transfection the AO-conjugates and control oligos were diluted in EGM-2 to the indicated concentration. Media was replaced with the supplemented EGM-2. The procedure was repeated every 24 h for two more days, samples were drawn at the indicated time points and analyzed via western blot. Other cell lines were treated similarly, with the exception that Id1-PCAO was added to standard growth media, DME or RPMI 1640 in accordance to cell type. Uptake studies in different cell lines with fluorescence labeled Id1-PCAO were performed in both the standard growth media (DME, RPMI 1640 or EGM-2) or in OptiMEM I (supplemented with 2% FBS) to control for media effects.

Id1 = experiment: Down-regulation of Id1 in tumor endothelium of MMTV-HER2/neu (YD) breast carcinoma, IHC; format: in vivo, mouse
Protocol: Homing studies were also performed in animals bearing spontaneous tumors in MMTV-HER2/neu (YD) and PTEN+/− backgrounds. […] To test if the PCAOs down-regulate Id1 protein levels in vivo, tumor bearing transgenic MMTV-HER2/neu (YD) Id1+/− mice were injected intravenously with Id1-PCAOs. Since repeated application of the drug was necessary to yield significant down-regulation in vitro, the animals were treated with […] of Id1-PCAO or Id1-AO for three consecutive days. Over 80% of tumor vessels in animals treated with Id1-PCAO were completely negative for Id1 expression by IHC.
YD neu transgenic animals bearing breast carcinoma were treated for 3 subsequent days with 25 nmol of either Id1-ASO or F3-Id1-ASO conjugate in PBS by i.v. injection. 24 h after the last injection animals were sacrificed, the tumor removed, fixed in paraformaldehyde and embedded in parafine. IHC staining was performed for Id1 (antibody C-20, SantaCruz Biotechnology, Santa Cruz, Calif.) on sections.

HUVEC = experiment: Wound healing (scratch) assay; format: cell-based, human; details: 200 nM, 72 h treatment, 22 h after scratch
Protocol: HUVEC (4th passage) were seeded 100,000 cells into the wells of a fibronectin coated two-well chamber slides (BD Bioscience). Medium was exchanged after 18 h with standard medium containing either F3-ASO conjugates or ASO at a concentration of 200 nM. The treatment was repeated every 24 h for two more days. 72 h after starting the treatment a scratch was applied with a micropipette-tip. Media was removed the cell-layer once washed with PBS and media containing the F3-conjugate or the control ASO was added. The chamber slides were incubated at 37° C. with 5% CO2 for 22 h. The cells were washed with PBS, fixed with 4% paraformaldehyde in PBS for 20 min at r.t., and washed twice with PBS. The slides were mounted and images were taken under a light microscope to access the grade of closure of the applied scratch.
HUVEC were plated in fibronectin coated two-well chamber slides (BD Bioscience) at 2.5×10^4 cells/well. Growth media was supplemented with 200 nM Id1-PCAO (or Id1-AO) and renewed every 24 h. 72 h after plating a scratch was applied using a 20 μl pipette tip. Chambers were washed with media and supplemented media was added. 18 h after the scratch was applied, cells were fixed and imaged.

## GCACCagctccttgaggcGUGAG (antisense GCACCAGCTCCTTGAGGCGUGAG; sugars from the 5' end m5 d13 m5, 5' {C6NH2}, backbone and methylation of C not given here; DNA gap phosphorothioate linked, F3 peptide conjugate form, further chemistry not fully specified) [Id1-AO, ID No. 2]
[1]
  uptake / internalization into endothelial cells: no internalization was observed
Id1; MMTV-HER2/neu (YD) Id1+/− mice, 15 nmol/d i.v., three consecutive days
  down-regulation of Id1 in tumor vessels: no detectable down-regulation of Id1
Id1; YD neu transgenic animals, 25 nmol i.v., 3 subsequent days, 24 h after last injection
  Id1 expression in tumor endothelium, IHC: no effect
HUVEC
  closure of the applied scratch: closed completely
